Measurements from patent publication US11795460B2, “Compositions and methods for TTR gene editing and treating ATTR amyloidosis” (Intellia Therapeutics, Inc., priority 2017, dated 2023).

Assays:
[1] = tested on: TTR; test: TTR editing in primary human hepatocytes transfected with Spy Cas9 protein (RNP) loaded with dgRNAs (Table 8); assay type: cell-based; conditions: dgRNA transfected with Spy Cas9 protein (RNP)
In short: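 Primary human hepatocytes were lipofected (RNAiMAX) with RNP of Spy Cas9 (10 nM) plus pre-annealed crRNA (10 nM) and trRNA (10 nM) and harvested 24, 48 or 72 h later. Target-site amplicons were sequenced on Illumina MiSeq and aligned to hg38; percent editing = reads with indels or substitutions over total reads.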

[2] = tested on: TTR; test: TTR editing in HepG2 cells transfected with Spy Cas9 mRNA and dgRNAs (Table 6); assay type: cell-based, human; conditions: HepG2 cells co-transfected with Spy Cas9 mRNA (SEQ ID NO:2) and dgRNAs
In short: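 HepG2 cells were transfected sequentially by lipofection with Spy Cas9 mRNA (100 ng), then crRNA plus tracer RNA (25 nM each), and harvested at 24, 48 or 72 h. Editing was measured by amplicon NGS at the TTR target site as the fraction of reads with indels or substitutions.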

[3] = tested on: TTR; test: TTR editing in HUH7 cells transfected with Spy Cas9 mRNA and dgRNAs (Table 5); assay type: cell-based, human; conditions: HUH7 cells co-transfected with Spy Cas9 mRNA (SEQ ID NO:2) and dgRNAs
In short: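 HUH7 cells were transfected sequentially with Spy Cas9 mRNA (100 ng) then crRNA and tracer RNA (25 nM each) by lipofection. Genomic DNA was collected 24, 48 or 72 h later. Target site was PCR-amplified and NGS-sequenced, and percent editing was taken as reads with indels or substitutions over total reads.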

[4] = tested on: TTR; test: TTR editing in HEK293_Cas9 cells transfected with dgRNAs (Table 4); assay type: cell-based, human; conditions: HEK293_Cas9 cells (constitutively express Spy Cas9) transfected with dgRNAs
In short: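 Spy Cas9-expressing HEK293 cells were transfected by lipofection with crRNA (25 nM) plus trRNA (25 nM) and harvested at 24, 48 or 72 h. The target site was PCR-amplified and sequenced on MiSeq. Percent editing is reads with indels or substitutions over total reads.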

Sequence | Avg % Deletion [1] | Avg % Edit [1] | Avg % Insert [1] | Avg % Deletion [2] | Avg % Edit [2] | Avg % Insert [2] | Avg % Deletion [3] | Avg % Edit [3] | Avg % Insert [3] | Avg % Deletion [4] | Avg % Edit [4] | Avg % Insert [4]
AUUGGUGACGACAGCCGUGG (tested as dual guide RNA, chemistry not given here) [CR003389] | 0.68% | 19.87% | 19.19% | 4.57% | 31.84% | 27.27% | 50.90% | 62.32% | 13.19% | 23.87% | 34.18% | 10.30%
AGUGAGUCUGGAGAGCUGCA (tested as dual guide RNA, chemistry not given here) [CR003359] | 8.51% | 59.47% | 50.96% | 15.65% | 64.44% | 48.79% | 45.97% | 66.75% | 21.73% | 19.40% | 37.75% | 18.35%
CCGUGGUGGAAUAGGAGUAG (tested as dual guide RNA, chemistry not given here) [CR003386] | 0.25% | 3.22% | 2.97% | 0.56% | 2.71% | 2.15% | 69.34% | 69.40% | 0.53% | 30.18% | 33.12% | 2.94%
ACUGAGGAGGAAUUUGUAGA (tested as dual guide RNA, chemistry not given here) [CR003363] | 6.18% | 27.65% | 21.47% | 14.07% | 42.65% | 28.58% | 23.78% | 41.01% | 17.83% | 16.26% | 31.03% | 14.77%
GUGAGUCUGGAGAGCUGCAU (tested as dual guide RNA, chemistry not given here) [CR003360] | 1.19% | 31.47% | 30.27% | 2.38% | 41.31% | 38.94% | 55.13% | 58.62% | 5.01% | 19.98% | 22.68% | 2.70%
CUCUGCAUGCUCAUGGAAUG (tested as dual guide RNA, chemistry not given here) [CR003369] | 1.31% | 12.98% | 11.67% | 5.51% | 22.62% | 17.11% | 17.38% | 24.19% | 7.12% | 24.04% | 33.10% | 9.06%
CUUCUCUACACCCAGGGCAC (tested as dual guide RNA, chemistry not given here) [CR003342] | 0.81% | 20.66% | 19.85% | 0.28% | 11.06% | 10.78% | 44.66% | 45.14% | 1.23% | 35.38% | 36.57% | 1.19%
